Measured values: patent US9410152B2, “Use of microrna molecules to influence skin pigmentation” (CHANEL PARFUMS BEAUTE, priority 2011, dated 2016)

Key:
[1] = test system: protein TYRP1; assay: Western blot of TYRP1 protein; type: cell-based, human; conditions: MNT-1 cells, 50 nM mimetic, day 12
Protocol: (§1) 4×10^5 MNT-1 cells were seeded per well in a 6-well plate (#353046, Falcon) on day-1. On day 0, the cells were transfected with 50 nM of mimetic of the miRNAs (hsa-mir-137 # C-300604-07-005, hsa-mir-7 # C-300547-05-0005, hsa-mir-330-5p # C-301082-01-0005, negative control # NC-002000-01-05, Dharmacon), using 5 μL of Lipofectamine 2000 (#1668-019, Invitrogen). On day 1, the medium was changed. On day 3, the cells were trypsinized and seeded at 4×10^5 cells per well. On day 4, the cells were transfected again with 50 nM of mimetic of the miRNAs (see day 0). On day 5, the medium was changed. On day 7, the cells were trypsinized and seeded at 4×10^5 cells per well. On day 8, the cells were transfected with 50 nM of mimetic of the miRNAs (see day 0). On day 9, the medium was changed. On day 10, the cells were trypsinized and divided into two (from one by six wells to two by six wells). On day 12, one six-well plate was used for lysis of the RNA and the other for lysis of the proteins. As positive control of depigmentation, MNT-1 cells were incubated with 3.5 mM of kojic acid (Sigma K3125-5G) for 12 days. The cells were distributed as described and the kojic acid was renewed with the medium every 4 days. The percentage inhibition of the kojic acid is of the order of 10%. […] The concentration of proteins was determined with the BCA Protein Assay (ThermoFisher). […]

[2] = test system: MLANA; assay: Western blot of MLANA protein; type: cell-based, human; conditions: MNT-1 cells, 50 nM mimetic, day 12
Protocol: as §1

[3] = test system: binding site of miR-330-5p in the 3'UTR of tyrosinase (TYR), WT; assay: Luciferase reporter assay, wild-type (WT) TYR 3'UTR binding site; type: cell-based; conditions: Lu1205 human melanoma cells, 50 nM mimetic co-transfected, relative to control without insert
Source text: (§2) The predicted binding site of miR-330-5p in the 3′UTR (position 68-75 of 3′UTR with total length of 393nt) of TYR (NM 000372) including the adjacent bases was designed using the following primers, and was cloned into the pmirGLO reporter vector (Promega) downstream of the region coding for firefly luciferase and using the Pmel and XbaI sites.
(§3) Ligation of the primers LL2086 (sense) and LL2087 (antisense) represents the wild-type (WT) TYR 3′UTR sequence, whereas ligation of the primers LL2088 (sense) and LL2089 (antisense) represents the mutated form of the binding site of the miR-330-Site 5p in the 3′UTR TYR region (MUT). All the constructs were confirmed by sequencing. On D0, 200,000 Lu1205 cells were seeded in 12-well plates. On D1, the Lu1205 cells were transfected with either 30 ng of pmirGLO empty vector (without insert), or 30 ng of WT construct, or 30 ng of MUT construct. At the same time, the cells were co-transfected with 50 nM of mimetic of miR-330-5p (Dharmacon) using Lipofectamine 2000 (Invitrogen). Forty-eight hours after transfection, the cells were collected and analyzed both with firefly luciferase and with Renilla luciferase (included in the pmirGLO vector) using the luciferase double assay (Promega) and a luminometer (Microlumatplus LB96V, Berthold Technologies). […] The relative luciferase activity was calculated, establishing the condition of non-insertion as 1.

[4] = test system: mutated form of the binding site of miR-330-5p in the 3'UTR TYR region (MUT); assay: Luciferase reporter assay, mutated (MUT) TYR 3'UTR binding site; type: cell-based; conditions: Lu1205 human melanoma cells, 50 nM mimetic co-transfected, relative to control without insert
Source text: as §2, §3

In the case of “hsa-miR-137: mimetic of miRNA hsa-mir-137 (Dharmacon C-300604-07-005); mature sequence SEQ ID NO: 3 (UUAUUGCUUAAGAAUACGCGUAG; commercial mimic, chemistry not given here; listed as Homo sapiens)”, the “level of protein TYRP1 (Western blot)” value [1] is reported as “reduces the level of protein TYRP1 slightly” and the “level of protein MLANA (Western blot)” value [2] is reported as “eliminates”.
For “hsa-miR-330-5p: mimetic of miRNA hsa-mir-330-5p (Dharmacon C-301082-01-0005); mature sequence 5'-UCUCUGGGCCUGUGUCUUAGGC-3' (SEQ ID NO: 1) (UCUCUGGGCCUGUGUCUUAGGC; mimic duplex, passenger strand not given here; listed as Homo sapiens)”, the “luciferase activity, WT construct” value [3] was “considerably reduced” and the “luciferase activity, MUT construct” value [4] was “restoration of luciferase activity”.
